In one test the target is T1, human D3 receptor (Homo sapiens, UniProt P35462).
T1 construct: (Natick, Mass., USA); host or cells: CCL 1.3 mouse fibroblasts
The experiment in a line: D3 binding assay (125I-iodosulpiride, cloned human D3 receptor-expressing CCL 1.3 mouse fibroblasts). The note with it: for Ki: 0.1 nM 125 iodosulpiride, 60 min, 30° C., read-out: Receptor binding D3 125I-sulpiride Ki; for Selectivity Ki D2 /Ki D3: ratio D2 (3H-spiperone) to D3 (125I-sulpiride). As for the experimental part: Cloned human D3 receptor-expressing CCL 1.3 mouse fibroblasts obtained from Res. Biochemicals Internat. One Strathmore Rd., Natick, Mass. 01760-2418 USA, were used for the binding studies.
The D3 -expressing cells were grown in RPMI-1640 containing 10% fetal calf serum (GIBCO No. 041-32400 N); 100 U/ml penicillin and 0.2% streptomycin (GIBCO BRL, Gaithersburg, Md., USA). After 48 h, the cells were washed with PBS and incubated with 0.05% trypsin-containing PBS for 5 min. Neutralization with medium was then carried out, and the cells were collected by centrifugation at 300×g. To lyze the cells, the pellet was briefly washed with lysis buffer (5 mM tris-HCl, pH 7.4, with 10% glycerol) and then incubated in a concentration of 10^7 cells/ml of lysis buffer at 4° C. for 30 min. The cells were centrifuged at 200×g for 10 min and the pellet was stored in liquid nitrogen.
For the D3 receptor-binding assay, the membranes were suspended in incubation buffer (50 mM tris-HCl, pH 7.4, with 120 mM NaCl, 5 mM KCl, 2 mM CaCl2, 2mM MgCl2, 10 μM quinolinol, 0.1% ascorbic acid and 0.1% BSA) in a concentration of about 10^6 cells/250 μl of assay mixture and incubated at 30° C. with 0.1 nM ^125 iodosulpiride in the presence and absence of test substance. The non-specific binding was determined using 10^-6 M spiperone.
After 60 min, the free and the bound radioligand was separated by filtration through GF/B glass fiber filters (Whatman, England) on a Skatron cell collector (Skatron, Lier, Norway), and the filters were washed with ice-cold tris-HCl buffer, pH 7.4. The radioactivity collected on the filters was quantified using a Packard 2200 CA liquid scintillation counter.
The Ki values were determined by non-linear regression analysis using the LIGAND program.

Another test concerns the target T2, D2 receptor (Bos taurus, UniProt P20288).
T2 construct: Nucleus caudatus was removed from bovine brain; from tissue; host or cells: bovine nucleus caudatus membranes
As to the kind of experiment: D2 binding assay (3H-spiperone, D2low, bovine nucleus caudatus membranes). The settings on record: 0.2 nmol/l 3H-spiperone (D2low), 25° C., 60 min. As to the method:
a) Nucleus caudatus (bovine)
Nucleus caudatus was removed from bovine brain and washed with ice-cold 0.32 M sucrose solution. After determination of the weight, the material was comminuted and homogenized in 5-10 volumes of sucrose solution using a Potter-Evehjem [sic] homogenizer (500 rpm). The homogenate was centrifuged at 3,000×g for 15 minutes (4° C.), and the resulting supernatant was subjected to another 15-minute centrifugation at 40,000×g. The residue was then washed twice, by resuspension and centrifugation, with 50 mM tris-HCl, pH 7.4. The membranes were stored in liquid nitrogen until used.
a) ^3 H-Spiperone (D2low)
Nucleus caudatus membranes were taken up in incubation buffer (mM: tris-HCl 50, NaCl 120, KCl 5, MgCl2 1, CaCl2 2, pH 7.4). Various mixtures, each of 1 ml, were prepared:
Total binding: 400 μg of membranes+0.2 nmol/l ^3 H-spiperone (Du Pont de Nemours, NET-565).
Non-specific binding: as mixtures for total binding+10 μM (+)-butaclamol.
Test substance: as mixtures for total binding+increasing concentrations of test substance.
After incubation at 25° C. for 60 minutes, the mixtures were filtered through GF/B glass fibre filters (Whatman, England) on a Skatron cell collector (from Zinsser, Frankfurt), and the filters were washed with ice-cold 50 mM tris-HCl buffer, pH 7.4. The radioactivity collected on the filters was quantified using a Packard 2200 CA liquid scintillation counter.
The Ki values were determined by non-linear regression analysis using the LIGAND program or by conversion of the IC50 values using the formula of Cheng and Prusoff.

T2 sequence (P20288 whole entry): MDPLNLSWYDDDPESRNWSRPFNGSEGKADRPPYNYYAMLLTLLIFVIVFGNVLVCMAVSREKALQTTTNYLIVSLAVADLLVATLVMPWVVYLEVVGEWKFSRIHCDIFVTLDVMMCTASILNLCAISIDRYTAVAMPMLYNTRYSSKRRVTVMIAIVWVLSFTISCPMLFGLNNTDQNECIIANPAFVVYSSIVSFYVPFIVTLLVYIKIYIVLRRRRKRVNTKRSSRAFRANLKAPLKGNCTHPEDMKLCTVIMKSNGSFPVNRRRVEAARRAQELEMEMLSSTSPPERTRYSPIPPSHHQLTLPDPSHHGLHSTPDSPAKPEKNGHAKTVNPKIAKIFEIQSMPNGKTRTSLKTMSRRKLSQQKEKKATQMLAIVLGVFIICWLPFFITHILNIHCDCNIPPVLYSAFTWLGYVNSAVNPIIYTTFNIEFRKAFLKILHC
T1 sequence (P35462 whole entry): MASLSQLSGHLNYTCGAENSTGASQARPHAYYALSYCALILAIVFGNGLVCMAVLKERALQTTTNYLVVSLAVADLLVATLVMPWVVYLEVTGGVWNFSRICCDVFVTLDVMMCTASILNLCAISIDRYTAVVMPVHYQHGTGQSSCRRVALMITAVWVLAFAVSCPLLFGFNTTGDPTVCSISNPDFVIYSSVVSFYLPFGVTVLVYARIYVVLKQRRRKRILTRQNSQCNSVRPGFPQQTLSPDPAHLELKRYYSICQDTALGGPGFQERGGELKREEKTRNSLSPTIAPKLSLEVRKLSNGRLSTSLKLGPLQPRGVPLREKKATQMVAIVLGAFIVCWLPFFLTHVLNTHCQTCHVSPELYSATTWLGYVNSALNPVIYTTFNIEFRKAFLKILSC

As for `Nc1nnc(CCCCCCN2CCN(c3cccc(C(F)(F)F)c3)CC2)s1` [Example 2], the Ki on human D3 receptor came out at 1.4 nM; at D2 receptor, 65 nM. Further, the “Selectivity Ki D2 /Ki D3” value at human D3 receptor was determined as 46.

On to `Nc1nnc(SCCCN2CCN(c3cc(Cl)cc(Cl)c3)CC2)s1` [Example 13], for which the Ki at human D3 receptor turned out to be 0.6 nM; at D2 receptor, 25 nM. The “Selectivity Ki D2 /Ki D3” value at human D3 receptor turned out to be 41.

On to `CC(CSc1nnc(N)s1)CN1CCN(c2cccc(C(F)(F)F)c2)CC1` (stereo not drawn) [Example 16], for which, on human D3 receptor, the Ki amounted to 10.9 nM and the “Selectivity Ki D2 /Ki D3” value was 36. For the same compound, at D2 receptor, the affinity corresponds to a Ki of 402 nM.

In the case of `Nc1nnc(SCCCN2CCN(c3cccc(C(F)(F)F)n3)CC2)s1` [Example 23], the Ki at human D3 receptor was 6.3 nM; on D2 receptor, 200 nM. Further, the “Selectivity Ki D2 /Ki D3” value at human D3 receptor was found to be 31.

In the case of `CC(C)c1cccc(N2CCN(CCCCCCCSc3nnc(N)s3)CC2)c1` [Example 49], on human D3 receptor, the Ki was 6.5 nM and the “Selectivity Ki D2 /Ki D3” value is given as 86. For the same compound, at D2 receptor, the affinity, expressed as Ki, was 560 nM.

In the case of `N#Cc1cccc(N2CCN(CCCCCCCCSc3nnc(N)s3)CC2)c1` [Example 51], on human D3 receptor, the Ki worked out at 8.3 nM and the “Selectivity Ki D2 /Ki D3” value came to 62. At D2 receptor, this compound showed a Ki of 500 nM.

In the case of `Nc1nnc(SCC=CCN2CCN(c3cccc(C(F)(F)F)n3)CC2)s1` [Example 53], the Ki on human D3 receptor was found to be 2.95 nM; at D2 receptor, 145 nM. Also, the “Selectivity Ki D2 /Ki D3” value at human D3 receptor was found to be 50.

Take `Cc1cc(N2CCN(CCCSc3nnc(N)s3)CC2)nc(-n2cccc2)n1` [Example 56]: on human D3 receptor, the inhibitory constant (Ki) was determined as 27 nM and the “Selectivity Ki D2 /Ki D3” value worked out at 70. Also, the Ki at D2 receptor stood at 3500 nM.

For the compound `CC(C)(C)c1cc(N2CCN(CCCSc3nnc(N)s3)CC2)nc(C(C)(C)C)n1` [Example 58], at human D3 receptor, the Ki was 1.7 nM and the “Selectivity Ki D2 /Ki D3” value was determined as 132. For the same compound, the Ki on D2 receptor was 225 nM.

Usually Ki stands for the dissociation constant of the complex between target and ligand, obtained from inhibition or displacement.

These data come from US5958923A, “Use of thiazole and thiadiazole compounds” (BASF Aktiengesellschaft, priority 1994, dated 1999).
